The test system of experiment [1] is bone marrow cells from patients with Paget's disease of bone. Put plainly: Osteoclast formation in bone marrow cultures from patients with Paget's disease of bone (23C6-positive cells with three or more nuclei). It is filed as cell-based, human. The source says: (§1) Mononuclear cells were fractionated from bone marrow cells of healthy normal adults and patients with Paget's disease of bone according to a method of Kurihara et al. (Endocrinology, vol. 126, 2733–2741 (1990) and Journal of Clinical Investigation, vol. 105, 606–614 (2000)). Briefly, bone marrow cells were obtained from normal adults and patients with Paget's disease of bone, a mononuclear cell fraction was collected by Hypaque-Ficoll density gradient centrifugation, the cell fraction was washed with α-Minimal Essential Media (α-MEM, GIBCO BRL; Grand Island, N.Y.) 3 times, and the cells were dispersed in α-MEM containing 10% fetal bovine serum (GIBCO BRL; Grand Island, N.Y.). This mononuclear cell suspension was seeded on 100-mm tissue culture plates, the culture plates were kept for 90 minutes at 37° C. in a 5% CO2-air atmosphere, and the non-adherent cells were collected.
Mononuclear cells were fractionated from bone marrow cells of patients with Paget's disease of bone as described in Example 1. The collected mononuclear cells were dispersed in an α-MEM culture medium containing 20% horse serum in such a manner that the concentration became 10^6 cells/ml, and seeded on a 96-well multiplate at 100 μl/well. The suppression effect of Compound 11 (23S isomer) on osteoclast formation in the bone marrow cells of patients with Paget's disease of bone induced by 1α,25-dihydroxyvitamin D3 was evaluated as follows. Into each well, 1α,25-dihydroxyvitamin D3 of various concentrations, Compound 11 (23S isomer) of various concentrations, or a combination of 10^−10 M 1α,25-dihydroxyvitamin D3 and Compound 11 (23S isomer) of various concentrations was added. The culture medium was replaced two times a week, and culture was continued for 3 weeks at 37° C. in an incubator of 5% CO2-air. After the culture, the culture product was subjected to 23C6 antibody (antibody; gift from Dr. Michael A. Horton, Rayne Institute, Bone and Mineral Center, London, United Kingdom) alkaline phosphatase dyeing (VECTASTAIN-ABC-AP kit; Vector Laboratories, Burlingame, Calif.), and the nuclei were dyed with methyl green. Cells that were positive to 23C6 antibody and had three or more nuclei were determined as osteoclast, and the number of all osteoclasts in each well was counted.

The next experiment relates to TAFII-17 gene. Put plainly: TAFII-17 gene expression (RT-PCR, band density vs β-actin) in bone marrow mononuclear cells from patients with Paget's disease of bone. It is filed as cell-based, human.
From the text: as §1
Mononuclear cells were prepared from bone marrow collected from patients with Paget's disease of bone according to a method described in Example 1. The collected mononuclear cells were dispersed in an α-MEM culture medium containing 20% horse serum in such a manner that the concentration became 3.3×10^5 cells/ml, seeded on 35-mm tissue culture plates at 3 ml/plate, and cultured for 12 hr at 37° C. in an incubator of 5% CO2-air in the presence of 10^−10 M 1α, 25-dihydroxyvitamin D3 and 10^−8 M Compound 11 (23S isomer) of the present invention singly, or in the presence of 10^−10 M 1α, 25-dihydroxyvitamin D3 and 10^−8 M Compound 11 (23S isomer) together. Subsequently, the cells were collected by centrifuge, RNA was extracted according to a routine procedure after the addition of 1 ml of an RNAzol B solution, and the resulting RNA was converted into cDNA by using a reverse transcriptase. The TAFII-17 gene was subjected to PCR reaction of 35 cycles each consisting of 1 min at 94° C., 1 min at 55° C. and 1 min at 72° C. using 5′-[…]-3′ (SEQ ID NO: 14) (sense) and 5′-[…]-3′(SEQ ID NO: 15) (antisense) as the primers. The PCR products were fractionated by electrophoresis using 2% agarose gel. As a house-keeping gene, β-actin was subjected to PCR reaction in the same manner, and the PCR products were fractionated by electrophoresis using 2% agarose gel. The densities of the bands of the TAFII-17 gene and the β-actin gene were determined by an image analyzer.

The subject of experiment [2] is human 25-hydroxyvitamin D3-24-hydroxylase gene promoter. Put plainly: 25-hydroxyvitamin D3-24-hydroxylase (24-OHase) luciferase reporter assay in NIH3T3 cells. It is filed as cell-based, mouse. The source says: The promoter region of the human 25-hydroxyvitamin D3-24-hydroxylase gene(−186/−5), which contains two vitamin D responsive elements (VDRE) was cloned into a luciferase reporter vector pGL3-Basic Vector (Promega; Madison, Wis.). This plasmid construct was cotransfected with a β-galactosidase expression plasmid into pcDNA3.1-Neo-hTAFII-17-CDS (Example 2) or its empty vector-transfected mouse fibroblastic cell line NIH3T3 cells by lipofection (LipofectAMINE; GIBCO BRL; Grand Island, N.Y.). Sixteen hours after the transfection, vehicle (0.1% ethanol) or 1α,25-(OH)2D3 (10^−10 to 10^−8 M) was added. Forty-eight hours later, the cells were harvested in the cell lysate solution provided with the luciferase assay kit (Promega; Madison, Wis.). The luciferase activities of the cell lysates were measured with the luciferase assay kit according to the manufacturer's instructions and was standardized with the β-galactosidase activities of the same cell lysates determined with a β-galactosidase enzyme assay system (Promega; Madison, Wis.).

Setting [3] is: test substance alone at 10^−7 M, 3 weeks culture.
[4] abbreviates: test substance alone at 10^−8 M, 3 weeks culture.
The mark [5] stands for this setting: test substance alone at 10^−9 M, 3 weeks culture.
[6] abbreviates: test substance alone at 10^−10 M, 3 weeks culture.
[7] abbreviates: test substance alone at 10^−11 M, 3 weeks culture.

Structures are written as SMILES.

On to `C=C1C[C@H](C[C@H](C)[C@H]2CC[C@H]3/C(=C/C=C4/C[C@@H](O)C[C@H](O)C4=C)CCC[C@]23C)OC1=O` (single isomer, unassigned) [Compound 11 (23S isomer)], for which the “osteoclast formation (average number of cells ± S.D.)” value in experiment [1] (10^−6 M compound 11 (23S isomer) + 10^−10 M 1α,25-dihydroxyvitamin D3, 3 weeks culture) was 1 ± 1 cells; in experiment [1] (10^−7 M compound 11 (23S isomer) + 10^−10 M 1α,25-dihydroxyvitamin D3, 3 weeks culture), 14 ± 1 cells; in experiment [1] (10^−8 M compound 11 (23S isomer) + 10^−10 M 1α,25-dihydroxyvitamin D3, 3 weeks culture) it was 63 ± 5 cells; in experiment [1] (10^−9 M compound 11 (23S isomer) + 10^−10 M 1α,25-dihydroxyvitamin D3, 3 weeks culture), 125 ± 5 cells; in experiment [1] (10^−10 M compound 11 (23S isomer) + 10^−10 M 1α,25-dihydroxyvitamin D3, 3 weeks culture), 155 ± 6 cells; in experiment [1] (10^−11 M compound 11 (23S isomer) + 10^−10 M 1α,25-dihydroxyvitamin D3, 3 weeks culture) it was 170 ± 13 cells. In addition, the “osteoclast formation (average number of cells ± S.D.)” value in experiment [1] (test substance alone at 10^−6 M, 3 weeks culture) is listed as 1 ± 1 cells; in experiment [1] (setting [3]), 8 ± 2 cells; in experiment [1] (setting [4]) it was 9 ± 3 cells; in experiment [1] (setting [5]) it was 16 ± 2 cells; in experiment [1] (setting [6]) it was 20 ± 4 cells; in experiment [1] (setting [7]), 29 ± 5 cells. In addition, the “osteoclast formation induced by 10^−10 M 1α,25-dihydroxyvitamin D3 (in words)” value in experiment [1] (Compound 11 (23S isomer) added simultaneously, range of 10^−11 M to 10^−6 M) is “suppressed”. The “osteoclast formation (in words)” value is reported as “did not caused any osteoclast formation” in experiment [1] (Compound 11 (23S isomer) alone at 10^−6 M) and “rather inhibited the osteoclast formation” in experiment [1] (Compound 11 (23S isomer) by itself). For the same compound, the “expression of TAFII-17 gene (in words)” value in the experiment with TAFII-17 gene (10^−8 M Compound 11 (23S isomer) added alone) was “remarkably suppressed”. For the same compound, the TAFII-17/β-actin in the experiment with TAFII-17 gene (10^−8 M Compound 11 (23S isomer) singly, 12 hr culture) was found to be 6.82 arbitrary units; in the experiment on TAFII-17 gene (10^−8 M Compound 11 (23S isomer) together with 10^−10 M 1α,25-(OH)2D3, 12 hr culture), 46.89 arbitrary units. Besides, the “expression of TAFII-17 gene accelerated by 10^−10 M 1α,25-(OH)2D3 (in words)” value with TAFII-17 gene (addition of 10^−8 M Compound 11 (23S isomer)) is “strongly suppressed”.
For the compound `C=C1/C(=C\C=C2/CCC[C@]3(C)[C@@H]([C@H](C)CCCC(C)(C)O)CC[C@@H]23)C[C@@H](O)C[C@@H]1O` [1α,25-dihydroxyvitamin D3, reference compound], in experiment [1] (1α,25-dihydroxyvitamin D3 alone), the “concentration exhibiting almost the maximum activity on osteoclast formation” value is listed as ~10^−9 M. Also, the “osteoclast formation (in words)” value in experiment [1] (1α,25-dihydroxyvitamin D3 alone, range of 10^−11 M to 10^−7 M) is “stimulated osteoclast formation concentration-dependently”. For the same compound, the “osteoclast formation (average number of cells ± S.D.)” value in experiment [1] (setting [3]) stood at 205 ± 6 cells; in experiment [1] (setting [4]), 206 ± 16 cells; in experiment [1] (setting [5]), 211 ± 25 cells; in experiment [1] (setting [6]) it was 180 ± 15 cells; in experiment [1] (setting [7]) it was 134 ± 14 cells. For the same compound, the “expression of 25-hydroxyvitamin D3-24-hydroxylase gene (reporter, in words)” value in experiment [2] (TAFII-17 gene-transfected NIH3T3 cells, 10^−8 M 1α,25-(OH)2D3, 48 h) is given as “extremely accelerated”; in experiment [2] (TAFII-17 gene-transfected NIH3T3 cells, 10^−9 M 1α,25-(OH)2D3, 48 h), “accelerated”; in experiment [2] (empty vector-transfected NIH3T3 cells, 10^−8 M 1α,25-(OH)2D3, 48 h), “detected”; in experiment [2] (empty vector-transfected NIH3T3 cells, 10^−9 M 1α,25-(OH)2D3, 48 h), “hardly detected”. In the experiment with TAFII-17 gene (10^−10 M 1α,25-(OH)2D3 singly, 12 hr culture), this compound returned a TAFII-17/β-actin of 100 arbitrary units.

The record behind these values is patent publication US7163933B2, “Treating agent for Paget's disease of bone” (Teijin Limited, priority 2002, dated 2007).
